# Laboratory results from ChEMBL document CHEMBL1201862, “PubChem BioAssay data set” (2004).
#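 1) Cells in 96-well plates. 2) Compound, 48 h, 5 concentrations. 3) Linear interpolation between surrounding doses. 4) Unreached endpoint = highest concentration. GI50 marks 50% less growth.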 Calls of active or inactive are those of the source. Rule as the data show it: active = GI50 up to about 1.1 µM and inactive = higher.
# Assays:
# Experiment in all cases: NCI tumour cell line growth inhibition, 48 h
# [1] = system: 786-0
# [2] = system: A498
# [3] = system: A549
# [4] = system: ACHN
# [5] = system: CAKI-1
# [6] = system: CCRF-CEM
# [7] = system: COLO 205
# [8] = system: DLD-1
# [9] = system: DMS-114
# [10] = system: DMS-273
# [11] = system: EKVX
# [12] = system: HCC 2998
# [13] = system: HCT-116
# [14] = system: HCT-15
# [15] = system: HL-60
# [16] = system: HOP-18
# [17] = system: HOP-62
# [18] = system: HOP-92
# [19] = system: HT-29
# [20] = system: IGROV-1
# [21] = system: K562
# [22] = system: KM-20L2
# [23] = system: KM12
# [24] = system: LOX IMVI
# [25] = system: LXFL 529
# [26] = system: M14
# [27] = system: M19-MEL
# [28] = system: MOLT-4
# [29] = system: Malme-3M
# [30] = system: NCI-H226
# [31] = system: NCI-H23
# [32] = system: NCI-H460
# [33] = system: NCI-H522
# [34] = system: OVCAR-3
# [35] = system: OVCAR-4
# [36] = system: OVCAR-5
# [37] = system: OVCAR-8
# [38] = system: RPMI-8226
# [39] = system: RXF 393
# [40] = system: SF-268
# [41] = system: SF-295
# [42] = system: SF-539
# [43] = system: SK-MEL-28
# [44] = system: SK-MEL-2
# [45] = system: SK-MEL-5
# [46] = system: SK-OV-3
# [47] = system: SN12C
# [48] = system: SNB-19
# [49] = system: SNB-75
# [50] = system: SNB-78
# [51] = system: SR
# [52] = system: SW-620
# [53] = system: TK-10
# [54] = system: U-251
# [55] = system: UACC-257
# [56] = system: UACC-62
# [57] = system: UO-31
# [58] = system: XF498
# [59] = system: RXF 631
structure (smiles),measurement,setting,value
NC(CO)c1ccc(OCc2ccccc2)cc1 (configuration not stated),GI50,[1],> 100 µM (inactive)
same,GI50,[2],> 100 µM (inactive)
same,GI50,[3],> 100 µM (inactive)
same,GI50,[4],> 100 µM (inactive)
same,GI50,[5],> 53.7 µM (inactive)
same,GI50,[6],40.6 µM (inactive)
same,GI50,[7],> 100 µM (inactive)
same,GI50,[8],> 100 µM (inactive)
same,GI50,[9],> 100 µM (inactive)
same,GI50,[10],> 100 µM (inactive)
same,GI50,[11],89.3 µM (inactive)
same,GI50,[12],> 100 µM (inactive)
same,GI50,[13],> 78.7 µM (inactive)
same,GI50,[14],> 91.8 µM
same,GI50,[15],24.4 µM (inactive)
same,GI50,[16],> 100 µM (inactive)
same,GI50,[17],> 100 µM (inactive)
same,GI50,[18],27.7 µM (inactive)
same,GI50,[19],> 100 µM (inactive)
same,GI50,[20],> 100 µM (inactive)
same,GI50,[21],> 100 µM (inactive)
same,GI50,[22],> 100 µM (inactive)
same,GI50,[23],> 100 µM (inactive)
same,GI50,[24],47.3 µM (inactive)
same,GI50,[25],> 100 µM (inactive)
same,GI50,[26],> 100 µM (inactive)
same,GI50,[27],> 100 µM (inactive)
same,GI50,[28],27.5 µM (inactive)
same,GI50,[29],> 100 µM (inactive)
same,GI50,[30],> 100 µM (inactive)
same,GI50,[31],> 100 µM (inactive)
same,GI50,[32],> 100 µM (inactive)
same,GI50,[33],42 µM (inactive)
same,GI50,[34],> 100 µM (inactive)
same,GI50,[35],> 92.7 µM (inactive)
same,GI50,[36],> 100 µM (inactive)
same,GI50,[37],> 100 µM (inactive)
same,GI50,[38],> 100 µM (inactive)
same,GI50,[39],> 73.5 µM (inactive)
same,GI50,[40],> 100 µM (inactive)
same,GI50,[41],> 100 µM (inactive)
same,GI50,[42],> 100 µM (inactive)
same,GI50,[43],> 100 µM (inactive)
same,GI50,[44],> 100 µM (inactive)
same,GI50,[45],> 100 µM (inactive)
same,GI50,[46],> 100 µM (inactive)
same,GI50,[47],> 91.8 µM (inactive)
same,GI50,[48],> 63.7 µM (inactive)
same,GI50,[49],20.3 µM (inactive)
same,GI50,[50],> 100 µM (inactive)
same,GI50,[51],31.2 µM (inactive)
same,GI50,[52],38.8 µM (inactive)
same,GI50,[53],> 100 µM (inactive)
same,GI50,[54],> 100 µM (inactive)
same,GI50,[55],> 100 µM (inactive)
same,GI50,[56],> 70.8 µM (inactive)
same,GI50,[57],44.3 µM (inactive)
same,GI50,[58],76.9 µM (inactive)
CC1(c2cc3c(cc2Br)OCO3)SCCCS1,GI50,[1],44.3 µM (inactive)
same,GI50,[2],58.5 µM (inactive)
same,GI50,[3],34.5 µM (inactive)
same,GI50,[4],41.4 µM (inactive)
same,GI50,[6],32.1 µM (inactive)
same,GI50,[7],51.4 µM (inactive)
same,GI50,[8],34.8 µM (inactive)
same,GI50,[9],32.2 µM (inactive)
same,GI50,[10],45.2 µM (inactive)
same,GI50,[11],77.1 µM (inactive)
same,GI50,[12],16.4 µM (inactive)
same,GI50,[13],31.7 µM (inactive)
same,GI50,[14],38.7 µM
same,GI50,[15],25.1 µM (inactive)
same,GI50,[17],31.1 µM (inactive)
same,GI50,[18],17.7 µM (inactive)
same,GI50,[19],32.1 µM (inactive)
same,GI50,[20],> 100 µM (inactive)
same,GI50,[21],31 µM (inactive)
same,GI50,[22],34.4 µM (inactive)
same,GI50,[23],51.4 µM (inactive)
same,GI50,[24],40 µM (inactive)
same,GI50,[25],45.7 µM (inactive)
same,GI50,[26],38.3 µM (inactive)
same,GI50,[27],39.6 µM (inactive)
same,GI50,[28],24.7 µM (inactive)
same,GI50,[30],32.4 µM (inactive)
same,GI50,[31],13.3 µM (inactive)
same,GI50,[32],36.2 µM (inactive)
same,GI50,[33],1.84 µM (inactive)
same,GI50,[34],38.4 µM (inactive)
same,GI50,[35],36.3 µM (inactive)
same,GI50,[36],42.3 µM (inactive)
same,GI50,[37],47.5 µM (inactive)
same,GI50,[38],27.4 µM (inactive)
same,GI50,[39],18.3 µM (inactive)
same,GI50,[59],44.9 µM (inactive)
same,GI50,[40],44.6 µM (inactive)
same,GI50,[41],49.1 µM (inactive)
same,GI50,[42],36.5 µM (inactive)
same,GI50,[43],78 µM (inactive)
same,GI50,[44],26.2 µM (inactive)
same,GI50,[45],20.4 µM (inactive)
same,GI50,[46],> 100 µM (inactive)
same,GI50,[47],39.3 µM (inactive)
same,GI50,[48],47.4 µM (inactive)
same,GI50,[49],40.6 µM (inactive)
same,GI50,[50],24.3 µM (inactive)
same,GI50,[52],42.1 µM (inactive)
same,GI50,[53],33.4 µM (inactive)
same,GI50,[54],33 µM (inactive)
same,GI50,[56],50.6 µM (inactive)
same,GI50,[57],24.2 µM (inactive)
same,GI50,[58],29.5 µM (inactive)
COC(=O)/C(C#N)=C1\NN=NN1CCCc1ccccc1,GI50,[1],> 100 µM (inactive)
same,GI50,[2],84.3 µM (inactive)
same,GI50,[3],> 100 µM (inactive)
same,GI50,[4],> 100 µM (inactive)
same,GI50,[5],> 100 µM (inactive)
same,GI50,[6],> 100 µM (inactive)
same,GI50,[7],> 100 µM (inactive)
same,GI50,[8],> 100 µM (inactive)
same,GI50,[9],> 100 µM (inactive)
same,GI50,[10],> 100 µM (inactive)
same,GI50,[11],> 100 µM (inactive)
same,GI50,[12],> 100 µM (inactive)
same,GI50,[13],> 100 µM (inactive)
same,GI50,[14],> 100 µM
same,GI50,[16],90.6 µM (inactive)
same,GI50,[18],> 100 µM (inactive)
same,GI50,[19],> 100 µM (inactive)
same,GI50,[20],> 100 µM (inactive)
same,GI50,[21],> 100 µM (inactive)
same,GI50,[23],> 100 µM (inactive)
same,GI50,[24],> 100 µM (inactive)
same,GI50,[25],> 100 µM (inactive)
same,GI50,[26],> 100 µM (inactive)
same,GI50,[27],> 100 µM (inactive)
same,GI50,[28],> 100 µM (inactive)
same,GI50,[29],> 100 µM (inactive)
same,GI50,[30],> 100 µM (inactive)
same,GI50,[31],> 100 µM (inactive)
same,GI50,[32],> 100 µM (inactive)
same,GI50,[33],13.5 µM (inactive)
same,GI50,[34],> 100 µM (inactive)
same,GI50,[37],> 100 µM (inactive)
same,GI50,[38],> 100 µM (inactive)
same,GI50,[39],> 100 µM (inactive)
same,GI50,[59],> 100 µM (inactive)
same,GI50,[41],> 100 µM (inactive)
same,GI50,[42],> 100 µM (inactive)
same,GI50,[43],> 100 µM (inactive)
same,GI50,[45],> 100 µM (inactive)
same,GI50,[46],> 100 µM (inactive)
same,GI50,[47],> 100 µM (inactive)
same,GI50,[48],> 100 µM (inactive)
same,GI50,[49],> 100 µM (inactive)
same,GI50,[50],> 100 µM (inactive)
same,GI50,[52],> 100 µM (inactive)
same,GI50,[53],> 100 µM (inactive)
same,GI50,[54],> 100 µM (inactive)
same,GI50,[55],> 100 µM (inactive)
same,GI50,[56],> 100 µM (inactive)
same,GI50,[57],76.4 µM (inactive)
